Experimental data published in patent publication US11578321B2, “Recombinant HBV reporter system” (Helmholtz Zentrum München Deutsches Forschungszentrum für …, priority 2018, dated 2023).

What was measured:
[1] = system: rHBV-CreN; assay: Detection of Cre-lox recombination by PCR in rHBV-CreN infected CreC/CIR cells; type: cell-based, hepatitis B virus; settings: rHBV-CreN infected CreC/CIR cells treated with MyrB
Experimental: (§1) HepG2-NTCP-CreC/CIR cells were seeded on collagen-coated plates with a density of 1.34×10^3 cells/mm^2 and cultured in DMEM containing 2.5% dimethylsulfoxide (DMSO) for 2 days prior to infection. The inoculum was prepared by diluting the virus in DMEM containing 2.5% DMSO and 4% PEG8000. For blocking rHBV entry, Myrcludex B (200 nM) was added to the rHBV inoculum (Li and Urban, 2016, Cancer research 42, 3858-3863). The cells were inoculated for 24 hours and maintained in DMEM containing 2.5% DMSO for indicated time according to the experimental set-ups.
Genomic DNA of the cells was isolated using NucleoSpin® Tissue Kit (Macherey-Nagel, 740952.250). The Cre-lox recombination was analyzed by PCR using primers flanking the neomycin sequence (forward, 5′-[…]-3′ (SEQ ID NO: 29) and reverse, 5′-GGTACCGTCGACTGCAGAT-3′ (SEQ ID NO: 30)). The PCR was performed with 250 ng of genomic DNA and Phusion® Hot Start Flex DNA Polymerase (New England Biolabs, M0535S). The reaction required the following conditions: 1 cycle of denaturation at 98° C. for 30 seconds, 35 cycles of amplification (98° C. for 10 seconds, 61° C. for 30 seconds, 72° C. for 45 seconds), and 1 cycle of extension at 72° C. for 1 minute. The PCR products were examined by agarose gel electrophoresis.

[2] = system: rHBV-CreN; assay: Western blot of Co-InCre reconstitution and core protein in rHBV-CreN infected CreC/CIR cells; type: cell-based, hepatitis B virus; settings: rHBV-CreN infected CreC/CIR cells treated with MyrB
Experimental: as §1
Cellular proteins were isolated using RIPA buffer (Pierce, 89900) containing a protease inhibitor cocktail (Roche, 11836153001). The proteins were separated by 12% Sodium dodecyl sulphate-polyacrylamide gel electrophoresis (SDS-PAGE) and subsequently transferred onto a polyvinylidene difluoride (PVDF) membrane (Bio-Rad, 162-0177). The blotted membrane was blocked with 5% milk-TBST (20 mM Tris-HCl, pH7.4, 140 mM NaCl, 1% Tween 20). The antibodies were diluted in 1.5% milk-TBST. For core protein detection, an in-house hybridoma supernatant (8C9) was used in a 1:1 dilution. For Co-InCre detection, an anti-Cre antibody (Merck, 69050) was used in a 1:1000 dilution. […]-Actin (1:5000; Sigma, A5441) was used as a reference protein. […] The chemiluminescent signal was detected by Intas ECL ChemoCam.

[3] = system: rHBV-CreN; assay: HBeAg ELISA of supernatant of rHBV-CreN infected CreC/CIR cells; type: cell-based, hepatitis B virus; settings: rHBV-CreN MOI=250 with MyrB, day 7 post-infection
Experimental: as §1
The amount of HBeAg in cell-derived supernatants was measured using a commercial qualitative immunoassay—Enzygnost HBe monoclonal (Siemens, OQDM11) and automated BEP III system (Siemens Healthcare).

[4] = system: rHBV-CreN; assay: rHBV-CreN infection of CreC/CIR reporter cells with entry inhibitor, DsRed-positive cells by flow cytometry; type: cell-based, hepatitis B virus
Experimental: HepG2-NTCP-CreC/CIR cells were seeded on collagen-coated plates with a density of 1.34×10^3 cells/mm^2 and cultured in DMEM containing 2.5% dimethylsulfoxide (DMSO) for 2 days prior to infection. The inoculum was prepared by diluting the virus in DMEM containing 2.5% DMSO and 4% PEG8000. […] The cells were inoculated for 24 hours and maintained in DMEM containing 2.5% DMSO for indicated time according to the experimental set-ups.
(§2) Cells were collected from 24-well plates using trypsin-versene at a 1:1 ratio (Gibco, 15400-054 and 15040-033). Cell pellets were resuspended in 1 ml of FACS buffer (PBS containing 1% BSA and 0.5 mM EDTA) and incubated with LIVE/DEAD™ Fixable Near-Infrared dead cell stain kit (Invitrogen, L10119). The samples were subjected to CytoFLEX S (Beckman Coulter) and the obtained data was analyzed by FlowJo software (v10, FlowJo LLC.).

[5] = system: rHBV-CreN infected HepG2-NTCP-CreC/CIR cells; assay: Negative selection of rHBV-CreN infected cells with Neomycin, flow cytometry; type: cell-based, human; settings: Neomycin 2 mg/ml for 30 days
Experimental: as §2

Myrcludex-B [MyrB]
0.2-kb band (ΔNeo) PCR product [1]: absent | Co-InCre detection (Western blot) [2]: not detected | core protein detection (Western blot) [2]: not detected | HBeAg level [3]: comparable to that of the mock sample | number of DsRed-positive cells ([4]; CreC/CIR cells, rHBV-CreN MOI=250, MyrB added to the inoculum, day 7 post-infection, FACS): less than 1% | percentage of DsRed-positive cells ([4]; HepG2-NTCP-CreC/CIR cells, rHBV-CreN MOI=300 virions/cell, Myrcludex B 200 nM, 10 days post infection, flow cytometry): less than 1%

Neomycin
reduction of the number of DsRed-positive cells compared to untreated group [5]: 3.6 fold
